The values that follow come from article PMC5607265, “Design, synthesis and structure-activity relationship of 3,6-diaryl-7H-[1,2,4]triazolo[3,4-b][1,3,4]thiadiazines as novel tubulin inhibitors” (Scientific Reports, 2017).

Series [1] deals with gastric adenocarcinoma SGC-7901 cells. The experiment in a line: MTT antiproliferative assay, SGC-7901. Format: cell-based, human. The following applies: Homo sapiens, SGC-7901; MTT assay, 24 h exposure, triplicate; read-out: IC50 SGC-7901. Here is the method: (§1) The SGC-7901, A549 and HT-1080 cell lines were purchased from the American Type Culture Collection (ATCC, Manassas, VA, USA). […] Briefly, approximately 3 × 10^4 cells were seeded in a 96-well plate. After 24 h of incubation at 37 °C, cells were exposed to compounds of differing concentrations for 24 h. After treatment, cells were washed with 1X PBS followed by addition of 100 µL of 0.05% MTT reagent to each well, followed by incubation for 4 h at 37 °C. After incubation, the supernatant from each well was carefully removed and the formazan crystals were dissolved in 100 µL of DMSO. The colour density was measured spectrophotometrically at 490 nm using a microplate reader (SpectraMax Plus384, Molecular Devices Corp., USA). The data were calculated and plotted as percent viability compared to control.
as §1
A general note: Tetrazolium dyes change colour on reduction, which living cells bring about.

Series [2] relates to fibrosarcoma HT-1080 cells. In words: MTT antiproliferative assay, HT-1080. Format: cell-based, human. The settings on record: Homo sapiens, HT-1080; MTT assay, 24 h exposure, triplicate; read-out: IC50 HT-1080. On the procedure: as §1, §1
The subject of series [3] is lung adenocarcinoma A549 cells. In words: MTT antiproliferative assay, A549. Format: cell-based, human. The settings on record: Homo sapiens, A549; MTT assay, 24 h exposure, triplicate; read-out: IC50 A549. Here is the method: as §1, §1

The term IC50 denotes the concentration needed to halve the response being measured. What is called melting point is the temperature, or range, at which the solid turns liquid. Consider `COc1ccc(-c2nnc3n2N=C(c2ccc(F)cc2)CS3)c(OC)c1OC` [Compound 4a, 3-(2,3,4-Trimethoxyphenyl)-6-(4-fluorophenyl)-7H-[1,2,4]triazolo[3,4-b][1,3,4]thiadiazine], for which the melting point lay within 92 to 94 °C. Further, the IC50 in series [1] worked out at 32.6 µM. Besides, the IC50 in series [2] is 31.3 µM. Moreover, the IC50 in series [3] stood at 21.2 µM.
Regarding `COc1ccc(-c2nnc3n2N=C(c2ccc(Cl)cc2)CS3)c(OC)c1OC` [Compound 4b, 3-(2,3,4-Trimethoxyphenyl)-6-(4-chlorophenyl)-7H-[1,2,4]triazolo[3,4-b][1,3,4]thiadiazine], the melting point lay within 88 to 90 °C. For the same compound, in series [1], the IC50 was found to be 24.5 µM. Further, the IC50 in series [2] worked out at 24.7 µM. The IC50 in series [3] amounted to 23.2 µM.
Consider `COc1ccc(-c2nnc3n2N=C(c2ccc(Br)cc2)CS3)c(OC)c1OC` [Compound 4c, 3-(2,3,4-Trimethoxyphenyl)-6-(4-bromophenyl)-7H-[1,2,4]triazolo[3,4-b][1,3,4]thiadiazines], for which the melting point fell in the range of 96 to 98 °C. Besides, the IC50 in series [1] stood at 5.55 µM. Also, the IC50 in series [2] came to 3.77 µM. Also, the IC50 in series [3] came to 7.37 µM.
Taken in the same sequence, the figures for `COc1ccc(-c2nnc3n2N=C(c2ccc(C(F)(F)F)cc2)CS3)c(OC)c1OC` [Compound 4e, 3-(2,3,4-Trimethoxyphenyl)-6-(4-(trifluoromethyl)phenyl)-7H-[1,2,4]triazolo[3,4-b][1,3,4]thiadiazine] were 95 to 96 °C, 2.42 µM, 10.5 µM and 85.4 µM.
As for `COc1ccc(C2=Nn3c(nnc3-c3ccc(OC)c(OC)c3OC)SC2)cc1` [Compound 4f, 3-(2,3,4-Trimethoxyphenyl)-6-(4-methoxyphenyl)-7H-[1,2,4]triazolo[3,4-b][1,3,4]thiadiazine], the melting point is 92 to 95 °C. In series [1], the IC50 amounted to 62.7 µM. Also, the IC50 in series [2] stood at 61.4 µM. Besides, the IC50 in series [3] came to 50.2 µM.
Taken in the same sequence, the figures for `COc1ccc(-c2nnc3n2N=C(c2ccc(SC)cc2)CS3)c(OC)c1OC` [Compound 4g, 3-(2,3,4-Trimethoxyphenyl)-6-(4-methylthiophenyl)-7H-[1,2,4]triazolo[3,4-b][1,3,4]thiadiazine] were 86 to 88 °C, 8.02 µM, 2.7 µM and 12.5 µM.
Taken in the same sequence, the figures for `COc1ccc(C2=Nn3c(nnc3-c3ccc(OC)c(OC)c3OC)SC2)cc1F` [Compound 4h, 3-(2,3,4-Trimethoxyphenyl)-6-(3-fluoro-4-methoxyphenyl)-7H-[1,2,4]triazolo[3,4-b][1,3,4]thiadiazine] were 92 to 94 °C, 43.2 µM, 51.9 µM and 16.3 µM.
For the compound `COc1ccc(C2=Nn3c(nnc3-c3ccc(OC)c(OC)c3OC)SC2)cc1[N+](=O)[O-]` [Compound 4i, 3-(2,3,4-Trimethoxyphenyl)-6-(3-nitro-4-methoxyphenyl)-7H-[1,2,4]triazolo[3,4-b][1,3,4]thiadiazine], the melting point was 134 to 136 °C. Also, the IC50 in series [1] amounted to 13.2 µM. Further, the IC50 in series [2] came to 15.9 µM. In series [3], the IC50 turned out to be 16.5 µM.
In turn, `COc1ccc(C2=Nn3c(nnc3-c3ccc(OC)c(OC)c3OC)SC2)cc1OCc1ccccc1` [Compound 4k, 3-(2,3,4-Trimethoxyphenyl)-6-(3-benzyloxy-4-methoxyphenyl)-7H-[1,2,4]triazolo[3,4-b][1,3,4]thiadiazine] displayed a melting point of 85 to 86 °C. Moreover, the IC50 in series [1] was 28.9 µM. Moreover, the IC50 in series [2] was 28.3 µM. Also, in series [3], the IC50 was determined as 8.9 µM.
Compound `COc1ccc(-c2nnc3n2N=C(c2ccc(F)c(F)c2)CS3)c(OC)c1OC` [Compound 4m, 3-(2,3,4-Trimethoxyphenyl)-6-(3,4-difluorophenyl)-7H-[1,2,4]triazolo[3,4-b][1,3,4]thiadiazine] returned a melting point of 95 to 97 °C. For the same compound, in series [1], the half-maximal inhibitory concentration (IC50) was 73.2 µM. The IC50 in series [2] came out at 81.3 µM. In series [3], the IC50 was 78.1 µM.
Taken in the same sequence, the figures for `COc1cc(-c2nnc3n2N=C(c2ccc(Cl)cc2)CS3)cc(OC)c1OC` [Compound 5a, 3-(3,4,5-Trimethoxyphenyl)-6-(4-chlorophenyl)-7H-[1,2,4]triazolo[3,4-b][1,3,4]thiadiazine] were 125 to 127 °C, 1.37 µM, 0.88 µM and 0.27 µM.
Compound `COc1cc(-c2nnc3n2N=C(c2ccc(C(F)(F)F)cc2)CS3)cc(OC)c1OC` [Compound 5c, 3-(3,4,5-Trimethoxyphenyl)-6-(4-(trifluoromethyl)phenyl)-7H-[1,2,4]triazolo[3,4-b][1,3,4]thiadiazine] showed a melting point of 105 to 106 °C. In series [1], the IC50 worked out at 1.17 µM. Besides, the concentration for half-maximal inhibition (IC50) in series [2] was 0.75 µM. Besides, in series [3], the concentration for half-maximal inhibition (IC50) amounted to 7.72 µM.
Taken in the same sequence, the figures for `COc1cc(-c2nnc3n2N=C(c2ccc(SC)cc2)CS3)cc(OC)c1OC` [Compound 5d, 3-(3,4,5-Trimethoxyphenyl)-6-(4-methylthiophenyl)-7H-[1,2,4]triazolo[3,4-b][1,3,4]thiadiazine] were 92 to 94 °C, 0.13 µM, 0.18 µM and 0.46 µM.
The compound `COc1ccc(C2=Nn3c(nnc3-c3cc(OC)c(OC)c(OC)c3)SC2)cc1F` [Compound 5e, 3-(3,4,5-Trimethoxyphenyl)-6-(3-fluoro-4-methoxyphenyl)-7H-[1,2,4]triazolo[3,4-b][1,3,4]thiadiazine] yielded a melting point of 115 to 118 °C. The IC50 in series [1] worked out at 4.28 µM. In addition, the IC50 in series [2] is 1.31 µM. For the same compound, the IC50 in series [3] came to 3.21 µM.
For the compound `COc1ccc(C2=Nn3c(nnc3-c3cc(OC)c(OC)c(OC)c3)SC2)cc1[N+](=O)[O-]` [Compound 5f, 3-(3,4,5-Trimethoxyphenyl)-6-(3-nitro-4-methoxyphenyl)-7H-[1,2,4]triazolo[3,4-b][1,3,4]thiadiazine], the melting point was 212 to 213 °C. For the same compound, the IC50 in series [1] was determined as 11.3 µM. In series [2], the half-inhibitory concentration (IC50) worked out at 5.76 µM. In addition, the IC50 in series [3] was 8.88 µM.
`COc1ccc(C2=Nn3c(nnc3-c3cc(OC)c(OC)c(OC)c3)SC2)cc1N` [Compound 5g, 3-(3,4,5-Trimethoxyphenyl)-6-(3-amino-4-methoxyphenyl)-7H-[1,2,4]triazolo[3,4-b][1,3,4]thiadiazine] returned a melting point of 112 to 115 °C. In addition, in series [1], the IC50 was 1.25 µM. Further, in series [2], the IC50 was found to be 0.18 µM. Moreover, the IC50 in series [3] came to 1.08 µM.
Taken in the same sequence, the figures for `COc1ccc(C2=Nn3c(nnc3-c3cc(OC)c(OC)c(OC)c3)SC2)cc1OCc1ccccc1` [Compound 5h, 3-(3,4,5-Trimethoxyphenyl)-6-(3-benzyloxy-4-methoxyphenyl)-7H-[1,2,4]triazolo[3,4-b][1,3,4]thiadiazine] were 93 to 94 °C, 1.66 µM, 1.57 µM and 2.94 µM.
Taken in the same sequence, the figures for `COc1ccc(C2=Nn3c(nnc3-c3ccc4c(c3)OCO4)SC2)cc1F` [Compound 6a, 3-(3,4-Methylenedioxyphenyl)-6-(3-fluoro-4-methoxyphenyl)-7H-[1,2,4]triazolo[3,4-b][1,3,4]thiadiazine] were 93 to 95 °C, 0.065 µM, 0.13 µM and 0.19 µM.
Taken in the same sequence, the figures for `COc1ccc(C2=Nn3c(nnc3-c3ccc4c(c3)OCO4)SC2)cc1[N+](=O)[O-]` [Compound 6b, 3-(3,4-Methylenedioxyphenyl)-6-(3-nitro-4-methoxyphenyl)-7H-[1,2,4]triazolo[3,4-b][1,3,4]thiadiazine] were 90 to 92 °C, 10.5 µM, 0.08 µM and 15.7 µM.
`COc1ccc(C2=Nn3c(nnc3-c3ccc4c(c3)OCO4)SC2)cc1OCc1ccccc1` [Compound 6d, 3-(3,4-Methylenedioxyphenyl)-6-(3-benzyloxy-4-methoxyphenyl)-7H-[1,2,4]triazolo[3,4-b][1,3,4]thiadiazine]: the melting point lay within 86 to 88 °C. Besides, the IC50 in series [1] came out at 8.49 µM. The IC50 in series [2] came to 7.32 µM. In addition, the IC50 in series [3] worked out at 16.3 µM.
Taken in the same sequence, the figures for `COc1ccc(-c2nnc3n2N=C(c2ccc(OC)c([N+](=O)[O-])c2)CS3)cc1OC` [Compound 6f, 3-(3,4-Dimethoxyphenyl)-6-(3-nitro-4-methoxyphenyl)-7H-[1,2,4]triazolo[3,4-b][1,3,4]thiadiazine] were 190 to 192 °C, 5.04 µM, 3.32 µM and 3.68 µM.
Taken in the same sequence, the figures for `COc1cccc(-c2nnc3n2N=C(c2ccc(OC)c([N+](=O)[O-])c2)CS3)c1` [Compound 6h, 3-(3-Methoxyphenyl)-6-(3-nitro-4-methoxyphenyl)-7H-[1,2,4]triazolo[3,4-b][1,3,4]thiadiazine] were 207 to 208 °C, 2.55 µM, 1.91 µM and 4.2 µM.
